Converted amounts (≈) assume the structure as drawn. Bounds are passed on as bounds.

The nature of series [1]: overt toxic symptoms or side effects in mice. In kind it is in vivo. As to conditions: single dose of 2 g./kg. The procedure:
Similarly the compound 7-(imidazol-2-yl)amino-3-(2-methyl-1,3,4-thiadiazol-5-yl)thiomethylceph-3- em-4-carboxylic acid was administered both orally and subcutaneously to mice at a single dose of 2 g./kg.

The next series has as its system bacterial infection. The series is described as follows: mouse protection test (PD50). As to conditions: subcutaneous. The format is in vivo.
A further series has as its system Ent. cloacae. The series is described as follows: MIC by agar-dilution technique, Ent. cloacae A13. The format is cell-based. The conditions noted are these: Enterobacter cloacae, No. Code A13, inoculum ~10^5 CFU. The text has this: (§1) As noted above the cephalosporin derivatives of the invention have antibacterial properties. Thus they are useful antibacterial agents, many of them having a broad spectrum of activity in vitro, against standard laboratory microorganisms, both Gram-negative and Gram-positive, which are used to screen for activity against pathogenic bacteria. The antibacterial spectrum and potency of a particular compound may be determined in a standard test system. […] The antibacterial activity is described in terms of the minimum inhibitory concentration (MIC) determined by agar-dilution technique with an inoculum size of ~10^5 CFU.

A further series relates to Staph. aureus. Kind of series: MIC by agar-dilution technique, Staph. aureus A6. The format is cell-based. As to conditions: Staphylococcus aureus, No. Code A6, inoculum ~10^5 CFU.
From the text: as §1

The test system of another series is K. aerogenes. Kind of series: MIC by agar-dilution technique, K. aerogenes A10. The format is cell-based. As to conditions: Klebsiella aerogenes, No. Code A10, inoculum ~10^5 CFU.
From the text: as §1

The subject of another series is Proteus mirabilis. The series is described as follows: MIC by agar-dilution technique, Proteus mirabilis A18. In kind it is cell-based. The conditions noted are these: No. Code A18, inoculum ~10^5 CFU.
From the text: as §1

The subject of another series is Strep. pyogenes. Kind of series: MIC by agar-dilution technique, Strep. pyogenes A1. In kind it is cell-based. As to conditions: Streptococcus pyogenes, No. Code A1, inoculum ~10^5 CFU.
From the text: as §1

A further series deals with Serratia marescens. Kind of series: MIC by agar-dilution technique, Serratia marescens A16. In kind it is cell-based. As to conditions: No. Code A16, inoculum ~10^5 CFU.
From the text: as §1

The next series concerns Ps. aeruginosa. The series is described as follows: MIC by agar-dilution technique, Ps. aeruginosa A21. In kind it is cell-based. The conditions noted are these: Pseudomonas aeruginosa, No. Code A21, inoculum ~10^5 CFU.
From the text: as §1

The subject of another series is E. coli. Kind of series: MIC by agar-dilution technique, E. coli A8. In kind it is cell-based. As to conditions: Escherichia coli, No. Code A8, inoculum ~10^5 CFU.
From the text: as §1

In the case of `Cc1nnc(SCC2=C(C(=O)O)N3C(=O)[C@@H](Nc4ncc[nH]4)[C@H]3SC2)s1` [7-(imidazol-2-yl)amino-3-(2-methyl-1,3,4-thiadiazol-5-yl)thiomethylceph-3-em-4-carboxylic acid], the “overt toxic symptoms or side effects” value in [1] (oral) and in [1] (subcutaneous) was “no overt toxic symptoms or side effects were noted” in each case.
Consider `CC(=O)OCC1=C(C(=O)O)N2C(=O)[C@@H](Nc3nc4c(O)cccc4[nH]3)[C@H]2SC1` [3-acetoxymethyl-7-(4-hydroxybenzimidazol-2-yl)aminoceph-3-em-4-carboxylic acid], for which the “dose relative to minimum effective dose which protected 50% of the mice against bacterial infection (PD50)” value in the series with bacterial infection (dose 200 mg./kg.) was “at least ten times”.
For `CC(=O)OCC1=C(C(=O)O)N2C(=O)[C@@H](Nc3ncc[nH]3)[C@H]2SC1` [drawing 38], the MIC (in general, the lowest concentration that inhibits growth of the organism) is 4 µg/mL (≈ 11.8 µM) in the series on Ent. cloacae; 32 µg/mL (≈ 94.6 µM) against Staph. aureus; 0.5 µg/mL (≈ 1.48 µM) with K. aerogenes; 32 µg/mL (≈ 94.6 µM) with Proteus mirabilis; 16 µg/mL (≈ 47.3 µM) in the series with Strep. pyogenes; 1 µg/mL (≈ 2.96 µM) against Serratia marescens. Besides, the MIC was more than 256 µg/mL in the series on Ps. aeruginosa and 0.12 µg/mL (≈ 0.355 µM) against E. coli.
Regarding `CC(=O)OCC1=C(C(=O)O)N2C(=O)[C@@H](Nc3nc4ccccc4[nH]3)[C@H]2SC1`, the MIC in the series with Ent. cloacae was more than 64 µg/mL; in the series on Staph. aureus it was 2 µg/mL (≈ 5.15 µM); against K. aerogenes, 4 µg/mL (≈ 10.3 µM); in the series on Proteus mirabilis, 4 µg/mL (≈ 10.3 µM); with Strep. pyogenes, 2 µg/mL (≈ 5.15 µM); in the series on Serratia marescens, 64 µg/mL (≈ 165 µM). For the same compound, the figures for the MIC with Ps. aeruginosa and against E. coli were more than 64 µg/mL and 2 µg/mL (≈ 5.15 µM), respectively.
With `CC(=O)OCC1=C(C(=O)O)N2C(=O)[C@@H](Nc3nc(-c4ccc(N(C)C)cc4)c[nH]3)[C@H]2SC1` [3-acetoxymethyl-7-[4-(4-dimethylamino)phenylimidazol-2-yl]aminoceph-3-em-4-carboxylic acid], the “dose relative to minimum effective dose which protected 50% of the mice against bacterial infection (PD50)” value with bacterial infection (dose 100 mg./kg.) is given as “at least ten times”.
Same read-out and setting: in the case of `Cn1nnnc1SCC1=C(C(=O)O)N2C(=O)[C@@H](Nc3ncc[nH]3)[C@H]2SC1` [7-(imidazol-2-yl)amino-3-(1H-1-methyltetrazol-5-yl)thiomethylceph-3-em-4-carboxylic acid] it was “at least ten times”.
As to `CC1=C(C(=O)O)N2C(=O)[C@@H](NC3=NCCN3)[C@H]2SC1`, the MIC in the series with Ent. cloacae is 8 µg/mL (≈ 28.3 µM); against Staph. aureus, more than 256 µg/mL; with K. aerogenes, 8 µg/mL (≈ 28.3 µM); in the series on Proteus mirabilis it was 256 µg/mL (≈ 907 µM); against Strep. pyogenes, 256 µg/mL (≈ 907 µM); in the series on Serratia marescens, 32 µg/mL (≈ 113 µM). Also, the MIC against Ps. aeruginosa is more than 256 µg/mL; in the series on E. coli it was 8 µg/mL (≈ 28.3 µM).
Turning to `CC(=O)OCC1=C(C(=O)O)N2C(=O)[C@@H](Nc3ncc[nH]3)[C@H]2SC1` [3-acetoxymethyl-7-imidazol-2-yl)aminoceph-3-em-4-carboxylic acid], the “dose relative to minimum effective dose which protected 50% of the mice against bacterial infection (PD50)” value with bacterial infection (dose 100 mg./kg.) is listed as “at least ten times”.

(Values after patent US4463173A, “Cephalosporin derivatives” (ICI Pharma, priority 1979, dated 1984).)
